The text below walks through data of patent publication US7786106B2, “Substituted benzene derivatives or salts thereof” (Astellas Pharma Inc., priority 2003, dated 2010).

In test [1] the test system is extrinsic coagulation time (PT). As to the kind of experiment: Ex vivo measurement of coagulation time in cynomolgus monkeys (oral administration), extrinsic coagulation time (PT). The settings on record: for Test on Measurement of Coagulation Time in Cynomolgus Monkeys (PT): relative ratio of coagulation time to control, blood collection point with the most potent extension. The procedure: 4) Test on Ex Vivo Measurement of Coagulation Time in Cynomolgus Monkeys (Oral Administration)
A drug (5 mg/ml or 0.5 mg/ml) which was dissolved (suspended) in 0.5% methylcellulose was compulsorily administered per os at a dose of 2 ml/kg (10 mg/kg or 1 mg/kg) via an oral gavage after blood collection before the administration of the drug to a male cynomolgus monkeys (body weight around 4 kg) fasted for 12 hours or longer and, after 1, 2, 4, 6 and 8 hour(s), 2 ml of blood was collected from femoral vein using 1/10 volume of 3.8% sodium citrate and blood plasma was separated by means of centrifugal treatment of 3,000 rpm for 10 minutes. Using the resulting blood plasma, extrinsic coagulation time (PT) and intrinsic coagulation time (APTT) were measured in accordance with the following methods a) and b). The experiment was carried out under non-anesthetization.
a) Extrinsic Coagulation Time (PT)
Ortho Brain Thromboplastin (54 mg/vial; a freeze-dried preparation; Ortho-Clinical Diagnostics) was dissolved in 2.5 ml of Milli-Q water and preliminarily warmed at 37° C. The above-separated blood plasma (50 μl) was warmed at 37° C. for 1 minute, 50 μl of the above-mentioned thromboplastin solution was added and the coagulation time was measured. KC10 of Amelung was used for the measurement of the coagulation time.

The next test concerns the target T1, human factor Xa (Homo sapiens, UniProt P00742).
T1 construct: purchased Enzyme Research Labs
As to the kind of experiment: In vitro test on measurement of coagulation time by human activated blood coagulation factor X (human plasma). The class given is biochemical. The settings on record: for Test on Measurement of Coagulation Time by Human Activated Blood Coagulation Factor X (CT2): CT2 = concentration by which the coagulation time is prolonged 2-fold, human blood plasma; for anti-blood coagulation action (extension of coagulation time), in words: in vitro, human plasma. How it is done: 1) An In Vitro Test on Measurement of Coagulation Time by Human Activated Blood Coagulation Factor X
To 90 μl of human blood plasma were added 10 μl of a drug or a physiological saline and 50 μl of human factor Xa (Enzyme Research Labs), incubation was carried out at 30° C. for 3 minutes, 100 μl of 20 mM CaCl2 previously warmed at 37° C. were added and the time until coagulation was measured by a coagulo-meter (KC10 of Amelung). With regard to the human blood plasma, each 45 ml of blood were collected from vein of elbow of six healthy persons using a syringe in which 5 ml of 3.8% sodium citrate were contained and centrifuged at 4° C. for 15 minutes at 3,000 rpm and the separate blood plasma was pooled and frozen, then thawed before use. With regard to the human factor Xa, the concentration by which the coagulation time when a physiological saline solution (control) was added was about 30 to 40 seconds was selected. A CT2 value (concentration by which the coagulation time is prolonged to an extent of 2-fold) was determined by plotting the drug concentrations and relative value (fold) of the coagulation time to the control, followed by subjecting to linear regression.

SMILES strings stand for the structures. Where a name gives a salt, the structure may show the parent alone.

T1 sequence (P00742 235-488 limits assumed): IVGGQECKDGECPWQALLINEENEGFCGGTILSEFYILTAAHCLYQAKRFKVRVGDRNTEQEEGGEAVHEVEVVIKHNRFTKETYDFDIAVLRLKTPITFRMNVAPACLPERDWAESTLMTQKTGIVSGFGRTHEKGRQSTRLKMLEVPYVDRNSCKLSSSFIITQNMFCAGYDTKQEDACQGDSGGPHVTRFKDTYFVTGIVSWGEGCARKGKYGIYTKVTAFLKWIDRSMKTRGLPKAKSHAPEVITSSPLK
T1 sequence (P00742 41-179 partner limits assumed): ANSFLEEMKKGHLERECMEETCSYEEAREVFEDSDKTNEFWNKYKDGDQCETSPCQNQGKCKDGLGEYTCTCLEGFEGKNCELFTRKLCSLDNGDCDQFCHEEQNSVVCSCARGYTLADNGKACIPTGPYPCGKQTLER

Take `CC(C)N1CCC(C(=O)Nc2ccc(Cl)cc2C(=O)Nc2ccc(Cl)cn2)CC1` [Control Compound, reference compound]: in test [1] (10 mg/kg per os), the “Test on Measurement of Coagulation Time in Cynomolgus Monkeys (PT)” value (“Test on Measurement of Coagulation Time … (PT)” for short) was 2.00.

In the case of `CC(C)N1CCC(C(=O)Nc2c(O[C@@H]3O[C@H](CO)[C@H](O)[C@H](O)[C@H]3O)cc(Br)cc2C(=O)Nc2ccc(Cl)cn2)CC1` [Example 1, trifluoroacetate], at human factor Xa, the “Test on Measurement of Coagulation Time by Human Activated Blood Coagulation Factor X (CT2)” value (“Test on Measurement of Coagulation Time … (CT2)” for short) was 0.295 µM and the “anti-blood coagulation action (extension of coagulation time), in words” value (shortened to “anti-blood coagulation action”) is given as “extend the coagulation time at low concentration”. Further, the “Test on Measurement of Coagulation Time … (PT)” value in test [1] (10 mg/kg per os) turned out to be 7.69. In addition, the “extending action for the coagulation time compared with control (Example 44 of WO 00/39118)” value in test [1] (same dose as control (10 mg/kg), oral, cynomolgus monkeys) is on record as “longer extending action for the coagulation time”.

Regarding `CC(=O)N[C@H]1[C@H](Oc2cc(Br)cc(C(=O)Nc3ccc(Cl)cn3)c2NC(=O)C2CCN(C(C)C)CC2)O[C@H](CO)[C@@H](O)[C@@H]1O` [Example 3, 2′-(2-acetamido-2-deoxy-β-D-glucopyranosyloxy)-4′-bromo-6′-[(5-chloro-2-pyridyl)-carbamoyl]-1-isopropylpiperidine-4-carboxanilide trifluoroacetate], the “Test on Measurement of Coagulation Time … (PT)” value in test [1] (10 mg/kg per os) was found to be 5.60.

Take `COC[C@H]1O[C@@H](Oc2cc(Br)cc(C(=O)Nc3ccc(Cl)cn3)c2NC(=O)C2CCN(C(C)C)CC2)[C@H](O)[C@@H](O)[C@@H]1O` [Example 8]: at human factor Xa, the “Test on Measurement of Coagulation Time … (CT2)” value turned out to be 0.137 µM and the “anti-blood coagulation action” value is reported as “extend the coagulation time at low concentration”.

Regarding `CC(C)N1CCC(CNc2c(O)cc(Cl)cc2C(=O)Nc2ccc(Cl)cn2)CC1` [Example 10], on human factor Xa, the “Test on Measurement of Coagulation Time … (CT2)” value was determined as 0.617 µM and the “anti-blood coagulation action” value was “extend the coagulation time at low concentration”.

On to `CC(C)N1CCC(C(=O)Nc2c(O)cc(Cl)cc2C(=O)Nc2ccc(Cl)cn2)CC1` [Example 18, 4′-chloro-2′-[(5-chloro-2-pyridyl)carbamoyl]-6′-hydroxy-1-isopropylpiperidine-4-carboxanilide hydrochloride], for which, at human factor Xa, the “Test on Measurement of Coagulation Time … (CT2)” value is 0.153 µM and the “anti-blood coagulation action” value is reported as “extend the coagulation time at low concentration”. For the same compound, the “Test on Measurement of Coagulation Time … (PT)” value in test [1] (1 mg/kg per os) came out at 1.94.

For `CC(C)N1CCC(C(=O)Nc2c(O)cc(Br)cc2C(=O)Nc2ccc(Cl)cn2)CC1` [Example 19, 4′-bromo-2′-[(5-chloro-2-pyridyl)carbamoyl]-6′-hydroxy-1-isopropylpiperidine-4-carboxanilide hydrochloride], the “Test on Measurement of Coagulation Time … (PT)” value in test [1] (1 mg/kg per os) turned out to be 2.26.
